# Reference: patent US20210361706A1 (priority 2018, published 2021)
# Where two headings read alike, the source gives them in different places.
# How the values were obtained:
# [1] = system: EO771 cells; format: in vivo, C57BL/6JNarl female mice; settings: tumor-resected mice
# Text: Following the assays described in Example 1 above, it was examined in this Example whether CTX monotherapy and CTX/NK cell combined therapy would induce protective immune memory under tumor-resected condition. Mice survived after the treatment of primary EO771 tumor were re-challenged with EO771 cells. […] FIG. 5. […] FIG. 5.
# [2] = system: EO771 tumor; format: in vivo, C57BL/6JNarl female mice; settings: for survival rate: twice CTX, FIG. 1B
# Experimental: The syngeneic orthotopic EO771 breast cancer mouse model (see Johnstone et al., Disease models & mechanisms, 8(3):237-251 (2015)) was used to evaluate the in vivo treatment efficacy.
# C57BL/6JNarl female mice were purchased from National Laboratory Animal Center, Taiwan and housed under specific pathogenic-free condition in the animal facility of Institute of Molecular Biology, Academia Sinica, Taiwan. Mice were used between 8-to-12-week-old.
# EO771 cell line (CH3 BioSystems) were cultured in complete medium (RPMI 1640 (Gibco) supplemented with 20 mM pH7.2 HEPES (Sigma-Aldrich), 10% fetal bovine serum (FBS; HyClone) and 1% Penicillin and Streptomycin (PS; Gibco)). B16-F10 melanoma was provided by Dr. Roffler, Steve R. (Institute of Biomedical Sciences, Academia Sinica, Taiwan) and cultured in complete medium (DMEM (Gibco) supplemented with 10% FBS (HyClone) and 1% PS (Gibco)). Tumor cells were cultured at 37° C. incubator with 5% CO2.
# Bone marrow (BM) cells were obtained from Tibias and femurs. Red blood cells were lysed by ACK lysis buffer (0.15 M NH4Cl, 10 mM NaHCO3, 1 mM disodium EDTA (pH 7.4)). The BM cells were cultured in 10% FBS RPMI medium containing rmIL-15 for 7 days, and IL-12 was added 16 hours before harvesting. The harvested BM cells were stained with antibodies specific for CD19, H57, NK1.1, CD11 c and B220, and sorted for CD11c^+B220^+ NK cells using FACSAriaII SORP (BD Biosciences; FACS Core, Institute of Molecular Biology, Academia Sinica, Taiwan).
# CTX was administrated on day-21 post tumor inoculation. The twice CTX-treatment group received the second CTX injection 6 days after the first treatment. Phosphate-buffered saline (PBS) was used as a negative control.
# First, the effects of CTX monotherapy, NK monotherapy, or CTX and NK cell combined therapy on EO771 tumor-bearing mice were examined, following the assays described in Example 1 above. The treatment started on day-21 post tumor inoculation. […] FIG. 2. […] FIG. 2.
# [3] = system: EO771 tumor; format: in vivo, C57BL/6JNarl female mice
# Text: Next, the effect of CTX monotherapy and CTX/NK cell combined therapy were examined in an EO771 tumor resection mouse model, which mimics patients whose tumor was surgically removed.
# Tumor and draining lymph node were resected on day-21 post tumor inoculation, and CTX alone or in combination with NK cells were started two days after the resection. […] FIG. 4. […] FIG. 4. […] FIG. 4. […]
# [4] = system: EO771 cells; assay: EO771 re-challenge of tumor-bearing mice that survived the primary tumor after treatment
# Experimental: The orthotopic syngeneic TMBC model was done by injection of EO771 cells into the 4th mammary fat pad of C57BL/6JNarl female mice. For the tumor-bearing model, each mouse was inoculated with 0.5×10^6 cells and received the first intra-peritoneal injection of CTX after 21 days. The second CTX injection was given 6 days later. Sorted CD11c^+B220^+ NK cells were transferred intravenously around 24 hours after the second CTX treatment, and followed with another NK cell transfer 3-4 days later. For the tumor-resect model, each mouse was inoculated with 0.3×10^6 EO771 cells, and the tumor and draining lymph node were resected 21 days later. CTX/NK treatment started at 48 hours after resection as described in the tumor-bearing model. […] The mice were monitored for survival, body weight, and tumor volume.
# Kaplan-Meier survival analyses were performed using GraphPad Prism 7, and the Log-rank test was used to determine significance. Cox proportional hazard model was used to analyze hazard ratio and interaction [24]. P-value≤0.05 was considered statistically significant (*p≤0.05, **p≤0.01, ***p≤0.001, ****p≤0.0001).
# To determine whether CTX/NK cell combined therapy would prevent or reduce the risk of tumor recurrence, mice who survived the primary tumor after the treatment were re-challenged with the same tumor cells to mimic cancer recurrence.
# The cure rate was estimated by multiplying the primary and re-challenge survival rates.
# [5] = primary survival rate × survival rate after EO771 re-challenge
# [6] = tumor-bearing model, reference: no treatment
# [7] = tumor-resection model, reference: no treatment (resection only)
smiles,measurement,setting,value
"O=P1(N(CCCl)CCCl)NCCCO1 (stereo not shown) [CTX, cyclophosphamide]",Tumor-free rate after EO771 re-challenge % (live/total),[1],30 (7/23) %
same,estimated cure rate,[1]; EO771 primary and re-challenge survival rates,26%
same,survival after EO771 re-challenge,[1]; FIG. 5,30%
same,Estimated cure rate with immune protection (%),[1]; [5],26%
same,mice survived for at least 120 days,"[2]; CTX once, 150 mg/kg per injection, day-21 post tumor inoculation, FIG. 1A",1 out of 8
same,mice survived for at least 120 days,"[2]; CTX twice, 6 days apart, 150 mg/kg per injection, from day 21, FIG. 1A",5 out of 8
same,mice survived for at least 120 days,"[2]; treatment started on day-21 post tumor inoculation, FIG. 2",62%
same,Primary survival rate % (live/total),"[2]; tumor-bearing mice, survival post treatment in mice inoculated with tumor the first time",62 (46/74) %
same,"HR (95% CI), Frailty adjustment",[2]; [6],"0.02 (0.009, 0.044)"
same,"HR (95% CI), cluster adjustment",[2]; [6],"0.024 (0.009, 0.066)"
same,"HR (95% CI), without batch adjustment",[2]; [6],"0.024 (0.012, 0.051)"
same,survival rate,"[2]; 6 days apart, 125 mg/kg per injection",11%
same,survival rate,"[2]; 6 days apart, 150 mg/kg per injection",62%
same,survival rate,"[3]; tumor resected mice, treatment started two days after resection, FIG. 4",86%
same,Primary survival rate % (live/total),"[3]; tumor-resected mice, survival post treatment in mice inoculated with tumor the first time",86 (49/57) %
same,"HR (95% CI), Frailty adjustment",[3]; [7],"0.083 (0.036, 0.192)"
same,"HR (95% CI), cluster adjustment",[3]; [7],"0.086 (0.037, 0.201)"
same,"HR (95% CI), without batch adjustment",[3]; [7],"0.086 (0.040, 0.186)"
same,Survival rate after EO771 re-challenge % (live/total),[4],90 (26/29) %
same,survived at least 120 days after the EO771 re-challenge,[4]; FIG. 3,90%
same,Estimated cure rate with immune protection (%),[4]; [5],56%
same,estimated cure rate,[4]; primary × re-challenge survival rates,56%
